≈ marks a conversion by molar mass, not a printed value.
Key:
Assay in all cases: in vitro antibacterial evaluation, MIC by broth dilution
Type in all cases: cell-based
[1] = system: Escherichia coli; conditions: 18 hours at 35° C.
[2] = system: Streptococcus sp.; conditions: broth dilution, 18 hours at 35° C.
Procedure, shortened: (§1)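 Read-out: the lowest concentration at which the test strain fails to grow. Serial dilutions (64-0.06 μg/mL) in Muller-Hinton II […], 5×10^5 CFU/mL inoculum, NCCLS M7-A2 procedure.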

[3] = system: Enterococcus sp.; conditions: broth dilution, 18 hours at 35° C.
Procedure, shortened: as §1

[4] = system: Staphylococcus sp.; conditions: broth dilution, 18 hours at 35° C.
Procedure, shortened: as §1

MIC Escherichia coli (ATCC 25922) [1]: >64 µg/mL
MIC Escherichia coli (GC 4559) [1]: >64 µg/mL
MIC Escherichia coli (GC 4560) [1]: 2 µg/mL (≈ 1.42 µM)
MIC Streptococcus agalactiae (GC 4564) [2]: 2 µg/mL (≈ 1.42 µM)
MIC Streptococcus pneumoniae (ATCC 6301) [2]: 1 µg/mL (≈ 0.708 µM)
MIC Streptococcus pneumoniae (GC 1894) [2]: 0.5 µg/mL (≈ 0.354 µM)
MIC Streptococcus pneumoniae (GC 4565) [2]: 0.5 µg/mL (≈ 0.354 µM)
MIC Streptococcus pyogenes (GC 4563) [2]: 2 µg/mL (≈ 1.42 µM)
MIC Streptococcus pneumoniae (ATCC 6301) ([2]; inoculum 5×10^5 CFU/mL, strain ATCC 6301): 1 µg/mL (≈ 0.708 µM)
MIC Streptococcus pneumoniae (GC 1894) ([2]; inoculum 5×10^5 CFU/mL, strain GC 1894): 0.5 µg/mL (≈ 0.354 µM)
MIC Streptococcus pyogenes (GC 4563) ([2]; inoculum 5×10^5 CFU/mL, strain GC 4563): 2 µg/mL (≈ 1.42 µM)
MIC Streptococcus agalactiae (GC 4564) ([2]; inoculum 5×10^5 CFU/mL, strain GC 4564): 2 µg/mL (≈ 1.42 µM)
MIC Streptococcus pneumoniae (GC 4565) ([2]; inoculum 5×10^5 CFU/mL, strain GC 4565): 0.5 µg/mL (≈ 0.354 µM)
MIC Enterococcus avium (GC 4558) [3]: 16 µg/mL (≈ 11.3 µM)
MIC Enterococcus faecalis (ATCC 29212) [3]: 16 µg/mL (≈ 11.3 µM)
MIC Enterococcus faecalis (GC 2242) [3]: 16 µg/mL (≈ 11.3 µM)
MIC Enterococcus faecalis (GC 2691) [3]: 16 µg/mL (≈ 11.3 µM)
MIC Enterococcus faecalis (GC 3059) [3]: 16 µg/mL (≈ 11.3 µM)
MIC Enterococcus faecalis (GC 4552) [3]: 16 µg/mL (≈ 11.3 µM)
MIC Enterococcus faecalis (GC 4553) [3]: 16 µg/mL (≈ 11.3 µM)
MIC Enterococcus faecalis (GC 4554) [3]: 16 µg/mL (≈ 11.3 µM)
MIC Enterococcus faecalis (GC 6189) [3]: 16 µg/mL (≈ 11.3 µM)
MIC Enterococcus faecium (GC 2243) [3]: 16 µg/mL (≈ 11.3 µM)
MIC Enterococcus faecium (GC 4556) [3]: 16 µg/mL (≈ 11.3 µM)
MIC Enterococcus faecium (GC 4557) [3]: 8 µg/mL (≈ 5.67 µM)
MIC Enterococcus faecalis (ATCC 29212) ([3]; strain ATCC 29212): 16 µg/mL (≈ 11.3 µM)
MIC Enterococcus faecium (GC 2243) ([3]; strain GC 2243): 16 µg/mL (≈ 11.3 µM)
MIC Enterococcus faecalis (GC 4552) ([3]; strain GC 4552): 16 µg/mL (≈ 11.3 µM)
MIC Enterococcus faecalis (GC 4553) ([3]; strain GC 4553): 16 µg/mL (≈ 11.3 µM)
MIC Enterococcus faecalis (GC 4554) ([3]; strain GC 4554): 16 µg/mL (≈ 11.3 µM)
MIC Enterococcus faecium (GC 4556) ([3]; strain GC 4556): 16 µg/mL (≈ 11.3 µM)
MIC Enterococcus faecium (GC 4557) ([3]; strain GC 4557): 8 µg/mL (≈ 5.67 µM)
MIC Enterococcus avium (GC 4558) ([3]; strain GC 4558): 16 µg/mL (≈ 11.3 µM)
MIC Enterococcus faecalis (GC 6189) ([3]; strain GC 6189): 16 µg/mL (≈ 11.3 µM)
MIC Enterococcus faecalis (GC 2242) ([3]; inoculum 5×10^5 CFU/mL, strain GC 2242): 16 µg/mL (≈ 11.3 µM)
MIC Enterococcus faecalis (GC 2691) ([3]; inoculum 5×10^5 CFU/mL, strain GC 2691): 16 µg/mL (≈ 11.3 µM)
MIC Enterococcus faecalis (GC 3059) ([3]; inoculum 5×10^5 CFU/mL, strain GC 3059): 16 µg/mL (≈ 11.3 µM)
MIC Coagulase Negative Staphylococcus (GC 4547) [4]: 8 µg/mL (≈ 5.67 µM)
MIC Coagulase Negative Staphylococcus (GC 4548) [4]: 4 µg/mL (≈ 2.83 µM)
MIC Coagulase Negative Staphylococcus (GC 4549) [4]: 4 µg/mL (≈ 2.83 µM)
MIC Coagulase Negative Staphylococcus (GC 4551) [4]: 16 µg/mL (≈ 11.3 µM)
MIC Coagulase Negative Staphylococcus (GC 6257) [4]: 2 µg/mL (≈ 1.42 µM)
MIC Staphylococcus aureus (ATCC 29213) [4]: 8 µg/mL (≈ 5.67 µM)
MIC Staphylococcus aureus (GC 1131) [4]: 8 µg/mL (≈ 5.67 µM)
MIC Staphylococcus aureus (GC 3051) [4]: 8 µg/mL (≈ 5.67 µM)
MIC Staphylococcus aureus (GC 3053) [4]: 8 µg/mL (≈ 5.67 µM)
MIC Staphylococcus aureus (GC 4541) [4]: 4 µg/mL (≈ 2.83 µM)
MIC Staphylococcus aureus (GC 4542) [4]: 4 µg/mL (≈ 2.83 µM)
MIC Staphylococcus aureus (GC 4544) [4]: 8 µg/mL (≈ 5.67 µM)
MIC Staphylococcus aureus (GC 4545) [4]: 4 µg/mL (≈ 2.83 µM)
MIC Staphylococcus aureus-SMITH (GC 4543) [4]: 8 µg/mL (≈ 5.67 µM)
MIC Staphylococcus aureus (ATCC 29213) ([4]; strain ATCC 29213): 8 µg/mL (≈ 5.67 µM)
MIC Staphylococcus aureus (GC 1131) ([4]; strain GC 1131): 8 µg/mL (≈ 5.67 µM)
MIC Staphylococcus aureus (GC 3051) ([4]; strain GC 3051): 8 µg/mL (≈ 5.67 µM)
MIC Staphylococcus aureus (GC 3053) ([4]; strain GC 3053): 8 µg/mL (≈ 5.67 µM)
MIC Staphylococcus aureus (GC 4541) ([4]; strain GC 4541): 4 µg/mL (≈ 2.83 µM)
MIC Staphylococcus aureus (GC 4542) ([4]; strain GC 4542): 4 µg/mL (≈ 2.83 µM)
MIC Staphylococcus aureus-SMITH (GC 4543) ([4]; strain GC 4543): 8 µg/mL (≈ 5.67 µM)
MIC Staphylococcus aureus (GC 4544) ([4]; strain GC 4544): 8 µg/mL (≈ 5.67 µM)
MIC Staphylococcus aureus (GC 4545) ([4]; strain GC 4545): 4 µg/mL (≈ 2.83 µM)
MIC Coagulase Negative Staphylococcus (GC 4547) ([4]; strain GC 4547): 8 µg/mL (≈ 5.67 µM)
MIC Coagulase Negative Staphylococcus (GC 4548) ([4]; strain GC 4548): 4 µg/mL (≈ 2.83 µM)
MIC Coagulase Negative Staphylococcus (GC 4549) ([4]; strain GC 4549): 4 µg/mL (≈ 2.83 µM)
MIC Coagulase Negative Staphylococcus (GC 4551) ([4]; strain GC 4551): 16 µg/mL (≈ 11.3 µM)
MIC Coagulase Negative Staphylococcus (GC 6257) ([4]; strain GC 6257): 2 µg/mL (≈ 1.42 µM)
SMILES: CC(c1ccccc1)C1NC(=O)CNC(=O)C(CO)NC(=O)C(C(O)C2CNC(=N)N2C2OC(CO)C(O)C(O)C2O)NC(=O)C(C(O)C2CNC(=N)N2)NC(=O)C(Cc2ccc(OC3OC(CO)C(OC4OC(COCC=Cc5ccccc5)C(O)C(O)C4O)C(O)C3O)cc2)NC1=O (stereo not shown) [Example 242]
MIC Staphylococcus haemolyticus (GC 4546) [4]: 4 µg/mL (≈ 2.83 µM)
MIC Staphylococcus haemolyticus (GC 4546) ([4]; strain GC 4546): 4 µg/mL (≈ 2.83 µM)

Reference: patent US6914045B2, “Glycopeptide antibiotics” (Wyeth Holdings Corporation, priority 2001, dated 2005)
